# Measurements reported in patent US10918746B2, “Radioactive compositions and methods for their therapeutic use” (IsoTherapeutics Group LLC, priority 2011, dated 2021).
# How the values were obtained:
# [1] = Biolocalization two hours after delivery into a drilled hole in the femur; assay type: in vivo, Sprague Dawley rat; settings: rat femur
# Procedure: Ho-166 in 0.1M HCl was obtained from MURR. The pH was measured with pH paper showing a pH of about 1. A miniature drill was used to create a hole in the femur of an anesthetized Sprague Dawley rat. A miniature pump was used to deliver 3 μL of Ho-166 solution into the hole created by the drill. Two hours after the injection of the dose the rat was sacrificed and dissected. The amount of activity found in the site of injection was 5% of the injected dose. 52% of the dose was found in the liver and 23% of the dose was found in the rest of the bone.
# A miniature drill was used to create a hole in the femur of an anesthetized Sprague Dawley rat. A miniature pump was used to deliver 2 μL of Sm-153-DOTMP solution into the hole created by the drill. Two hours after the injection of the dose the rat was sacrificed and dissected. The amount of activity found in the site of injection was 9% of the injected dose and about 20% was found in the rest of the bone. An average of 65% of the injected dose was found in the urine.
# [2] = Biolocalization after injection into synovial cavity of right hind knee; assay type: in vivo, Sprague Dawley rats; settings: Rats
# Text: One method of this invention uses a therapeutically-effective quantity of the compositions of Formula (II) and Formula (III), administered in one or more locations into or near a Non-intracavitary, undesirable tissue mass (e.g. cancer) in an animal or human in need of such treatment. Another method of this invention uses a therapeutically-effective quantity of these hydroxy carbonates, administered in one or more locations into or near the synovial cavity to treat arthritis. In either method the treatment is such that a major portion of the dose remains at the site of injection (defined as greater than about 90% of the dose remaining at the site after two half-lives of the radioisotopes; more preferably greater than about 95% of the dose remaining at the site after 2 half-lives of the radioactive isotopes; and most preferably greater than about 98% of the dose remaining at the site after 2 half-lives of the radioisotopes) as determined by biolocalization data obtained by dissection of an animal (e.g. BALB/c mice or Sprague Dawley rats); wherein the values are corrected for radioactive decay. It is also important to recognize that deposition of radioactivity in non-target organs and tissues can impact the safety and efficacy of the treatment. Ideally, in mice, less than about 1% remaining in the carcass (including the contralateral femur) and less than about 0.2% in the liver plus the kidneys and, in rats, less than about 1% in the skeletal structure and less than about 0.2% in the liver plus the kidneys. In the case of mice (injection into the gastrocnemius muscle of the right hind leg is used as a model for Non-Intracavitary tumors), all tissues, including the whole carcass, and bedding were collected such that 100% of the radioactivity was accounted for. In the case of rats (injections were directly into the synovial cavity), the size of the animal precluded counting the entire carcass. Therefore samples of blood, muscle, and bone (contralateral femur) were collected and the total masses of those tissues were calculated. The tissue masses were calculated based on rat body weight using equations fitted to data in the literature [Henry H. Donaldson, The Rat: Reference Tables and Data for the Albino Rat and the Norway Rat, (1915)].
# Six male Sprague Dawley rats, under Isoflurane anesthesia, were each injected with 20 μL of the Composition prepared according to the procedure of Example 1 into the synovial cavity of the right hind knee using a ⅓ cc insulin syringe. The dose was deposited into the cavity via needle insertion through the skin. The rats were individually housed in cages with absorbent paper under a wire mesh bottom. […]
# Due to the size of the animals, the carcass was not collected and measured as was done for the mice. The % ID in the skeletal structure, muscular structure and blood in the body were calculated from the activity in samples of those tissues (left femur, left thigh, blood) and rat body weight using equations fitted to data in the literature as was described earlier.
# Samples were counted for radioactivity on a PerkinElmer Wizard automated NaI well detector. The data, shown below in Table 1, indicate the average percent injected dose in each tissue/sample.
smiles,measurement,setting,value
"[166Ho+3].[Cl-].[Cl-].[Cl-] [Example G, Ho-166 Chloride]",amount of activity found in the site of injection,[1],5 % of the injected dose
same,dose found in the liver,[1]; two hours after injection,52 % of the dose
same,dose found in the rest of the bone,[1]; two hours after injection,23%
O=C([O-])CN(CCN(CC(=O)[O-])CC(=O)[O-])CCN(CC(=O)[O-])CC(=O)[O-].[117Sn+4].[H+] [Example K],"Average % ID, Calculated Blood",[2]; 14 days,0.0 % ID
same,"Average % ID, Calculated Muscle",[2]; 14 days,0.3 % ID
same,"Average % ID, Calculated Skeleton",[2]; 14 days,28.0 % ID
same,"Average % ID, Heart",[2]; 14 days,0.0 % ID
same,"Average % ID, Kidney",[2]; 14 days,0.4 % ID
same,"Average % ID, Leg (injection site)",[2]; 14 days,31.2 % ID
same,"Average % ID, Lg. Intestine",[2]; 14 days,0.0 % ID
same,"Average % ID, Liver",[2]; 14 days,0.4 % ID
same,"Average % ID, Lung",[2]; 14 days,0.0 % ID
same,"Average % ID, Sm. Intestine",[2]; 14 days,0.0 % ID
same,"Average % ID, Spleen",[2]; 14 days,0.0 % ID
same,"Average % ID, Stomach",[2]; 14 days,0.0 % ID
same,"Average % ID, Urine/Feces",[2]; 14 days,39.5 % ID
same,"Average % ID, Calculated Blood",[2]; 28 days,0.0 % ID
same,"Average % ID, Calculated Muscle",[2]; 28 days,0.1 % ID
same,"Average % ID, Calculated Skeleton",[2]; 28 days,30.0 % ID
same,"Average % ID, Heart",[2]; 28 days,0.0 % ID
same,"Average % ID, Kidney",[2]; 28 days,0.3 % ID
same,"Average % ID, Leg (injection site)",[2]; 28 days,22.6 % ID
same,"Average % ID, Lg. Intestine",[2]; 28 days,0.0 % ID
same,"Average % ID, Liver",[2]; 28 days,0.4 % ID
same,"Average % ID, Lung",[2]; 28 days,0.0 % ID
same,"Average % ID, Sm. Intestine",[2]; 28 days,0.0 % ID
same,"Average % ID, Spleen",[2]; 28 days,0.0 % ID
same,"Average % ID, Stomach",[2]; 28 days,0.0 % ID
same,"Average % ID, Urine/Feces",[2]; 28 days,46.6 % ID
O=P([O-])(O)CN1CCN(CP(=O)([O-])O)CCN(CP(=O)(O)O)CCN(CP(=O)([O-])O)CC1.[153Sm+3] [Sm-153-DOTMP],amount of activity found in the site of injection,[1],9 % of the injected dose
same,dose found in the rest of the bone,[1]; two hours after injection,about 20%
same,injected dose found in the urine,"[1]; two hours after injection, average",65 % of the injected dose
